Results from PubChem BioAssay AID1745844 (Carcinogenic Potency Database (CPDB), 2022).
Values joined by “and” are separate entries in the source; they are usually repeats but may differ in a detail not shown here. Identical values can stand only once. Active and inactive are the calls of the source. How the calls were made is not given here.

Test system: rodent lifetime carcinogenesis bioassay, tumor incidence TD50
Assay: chronic cancer bioassays in animals – CPDB, compiled studies (AID 1745844)
[1] = mouse, strain Swiss, females, in feed, site: any site (literature study), lesion: several types, types named in the paper, dosed 46 weeks, study length 55 weeks
[2] = mouse, strain Swiss, females, in feed, site: forestomach, lesion: several types, types named in the paper, dosed 46 weeks, study length 55 weeks
[3] = mouse, strain Swiss, females, in feed, site: forestomach, lesion: squamous-cell papilloma, dosed 46 weeks, study length 55 weeks

O=P(OCCCl)(OCCCl)OCCCl
TD50 (mouse, strain B6C3F1, females, by gavage, site: Harderian gland, lesion: adenoma + carcinoma, dosed 104 weeks, study length 104 weeks): 1390 mg/kg/day | TD50 (mouse, strain B6C3F1, females, by gavage, site: any site (literature study), lesion: several types, types named in the paper, dosed 104 weeks, study length 104 weeks): 610 mg/kg/day | TD50 (mouse, strain B6C3F1, females, by gavage, site: liver, lesion: hepatocellular adenoma + hepatocellular carcinoma + neoplastic nodule, dosed 104 weeks, study length 104 weeks): 2870 mg/kg/day | TD50 (mouse, strain B6C3F1, females, by gavage, site: lung, lesion: alveolar/bronchiolar adenoma + alveolar/bronchiolar carcinoma, dosed 104 weeks, study length 104 weeks): 4380 mg/kg/day | TD50 (mouse, strain B6C3F1, females, by gavage, site: mammary gland, lesion: adenocarcinoma, dosed 104 weeks, study length 104 weeks): 3050 mg/kg/day | TD50 (mouse, strain B6C3F1, females, by gavage, site: uterus, lesion: endometrial stromal polyp, dosed 104 weeks, study length 104 weeks): 2420 mg/kg/day | TD50 (mouse, strain B6C3F1, males, by gavage, site: any site (literature study), lesion: several types, types named in the paper, dosed 104 weeks, study length 104 weeks): 807 mg/kg/day | TD50 (mouse, strain B6C3F1, males, by gavage, site: kidney, lesion: tubule adenoma + tubule carcinoma, dosed 104 weeks, study length 104 weeks): 3510 mg/kg/day and 6810 mg/kg/day | TD50 (mouse, strain B6C3F1, males, by gavage, site: kidney, lesion: tubule carcinoma, dosed 104 weeks, study length 104 weeks): 8450 mg/kg/day | TD50 (mouse, strain B6C3F1, males, by gavage, site: liver, lesion: hepatocellular adenoma + hepatocellular carcinoma + neoplastic nodule, dosed 104 weeks, study length 104 weeks): 569 mg/kg/day | TD50 (mouse, strain B6C3F1, males, by gavage, site: lung, lesion: alveolar/bronchiolar adenoma + alveolar/bronchiolar carcinoma, dosed 104 weeks, study length 104 weeks): 61700 mg/kg/day | TD50 (mouse, strain Slc:ddY, females, in feed, site: all sites, lesion: leukemia, dosed 78 weeks, study length 78 weeks): 4790 mg/kg/day | TD50 (mouse, strain Slc:ddY, females, in feed, site: any site (literature study), lesion: several types, types named in the paper, dosed 78 weeks, study length 78 weeks): 880 mg/kg/day | TD50 (mouse, strain Slc:ddY, females, in feed, site: forestomach, lesion: several types, types named in the paper, dosed 78 weeks, study length 78 weeks): 5500 mg/kg/day | TD50 (mouse, strain Slc:ddY, females, in feed, site: forestomach, lesion: squamous-cell carcinoma, dosed 78 weeks, study length 78 weeks): 8970 mg/kg/day | TD50 (mouse, strain Slc:ddY, females, in feed, site: liver, lesion: hepatocellular adenoma, dosed 78 weeks, study length 78 weeks): 23000 mg/kg/day | TD50 (mouse, strain Slc:ddY, males, in feed, site: any site (literature study), lesion: several types, types named in the paper, dosed 78 weeks, study length 78 weeks): 185 mg/kg/day | TD50 (mouse, strain Slc:ddY, males, in feed, site: kidney, lesion: renal-cell carcinoma, dosed 78 weeks, study length 78 weeks): 844 mg/kg/day | TD50 (mouse, strain Slc:ddY, males, in feed, site: kidney, lesion: several types, types named in the paper, dosed 78 weeks, study length 78 weeks): 539 mg/kg/day | TD50 (mouse, strain Slc:ddY, males, in feed, site: liver, lesion: hepatocellular carcinoma, dosed 78 weeks, study length 78 weeks): 28800 mg/kg/day | TD50 (mouse, strain Slc:ddY, males, in feed, site: liver, lesion: several types, types named in the paper, dosed 78 weeks, study length 78 weeks): 1690 mg/kg/day | TD50 (rat, strain Fischer 344, females, by gavage, site: any site (literature study), lesion: several types, types named in the paper, dosed 104 weeks, study length 104 weeks): 39.9 mg/kg/day | TD50 (rat, strain Fischer 344, females, by gavage, site: kidney, lesion: tubule adenoma, dosed 104 weeks, study length 104 weeks): 187 mg/kg/day | TD50 (rat, strain Fischer 344, females, by gavage, site: multiple organs, lesion: mononuclear-cell leukemia, dosed 104 weeks, study length 104 weeks): 90.2 mg/kg/day | TD50 (rat, strain Fischer 344, females, by gavage, site: thyroid gland, lesion: follicular-cell adenoma + follicular-cell carcinoma, dosed 104 weeks, study length 104 weeks): 203 mg/kg/day | TD50 (rat, strain Fischer 344, females, by gavage, site: thyroid gland, lesion: follicular-cell carcinoma, dosed 104 weeks, study length 104 weeks): 280 mg/kg/day | TD50 (rat, strain Fischer 344, females, by gavage, site: uterus, lesion: endometrial stromal sarcoma, dosed 104 weeks, study length 104 weeks): 589 mg/kg/day | TD50 (rat, strain Fischer 344, males, by gavage, site: adrenal medulla, lesion: pheochromocytoma benign, bilateral + pheochromocytoma, benign, dosed 104 weeks, study length 104 weeks): 49.5 mg/kg/day | TD50 (rat, strain Fischer 344, males, by gavage, site: any site (literature study), lesion: several types, types named in the paper, dosed 104 weeks, study length 104 weeks): 56.8 mg/kg/day | TD50 (rat, strain Fischer 344, males, by gavage, site: brain + cerebellum, meninges, lesion: granular-cell tumor, benign, dosed 104 weeks, study length 104 weeks): 705 mg/kg/day | TD50 (rat, strain Fischer 344, males, by gavage, site: kidney, lesion: tubule adenoma + tubule carcinoma, dosed 104 weeks, study length 104 weeks): 56.4 mg/kg/day | TD50 (rat, strain Fischer 344, males, by gavage, site: kidney, lesion: tubule adenoma, dosed 104 weeks, study length 104 weeks): 56.9 mg/kg/day | TD50 (rat, strain Fischer 344, males, by gavage, site: kidney, lesion: tubule carcinoma, dosed 104 weeks, study length 104 weeks): 8400 mg/kg/day | TD50 (rat, strain Fischer 344, males, by gavage, site: liver, lesion: hepatocellular adenoma + hepatocellular carcinoma + neoplastic nodule, dosed 104 weeks, study length 104 weeks): 633 mg/kg/day | TD50 (rat, strain Fischer 344, males, by gavage, site: multiple organs, lesion: mononuclear-cell leukemia, dosed 104 weeks, study length 104 weeks): 107 mg/kg/day | TD50 (rat, strain Fischer 344, males, by gavage, site: subcutaneous tissue, lesion: fibroma, dosed 104 weeks, study length 104 weeks): 246 mg/kg/day | TD50 (rat, strain Fischer 344, males, by gavage, site: thyroid gland, lesion: follicular-cell adenoma + follicular-cell carcinoma, dosed 104 weeks, study length 104 weeks): 338 mg/kg/day

Nc1nc(-c2ccc([N+](=O)[O-])o2)cs1
TD50 [1]: 6.83 mg/kg/day | TD50 [2]: 7.87 mg/kg/day | TD50 [3]: 11.5 mg/kg/day | TD50 (rat, strain Fischer, females, in feed, site: forestomach, lesion: several types, types named in the paper, dosed 52 weeks, study length 68 weeks): 5.85 mg/kg/day | TD50 (rat, strain Fischer, females, in feed, site: forestomach, lesion: squamous-cell papilloma, dosed 52 weeks, study length 68 weeks): 8.94 mg/kg/day | TD50 (rat, strain Fischer, females, in feed, site: urinary bladder, lesion: several types, types named in the paper, dosed 52 weeks, study length 68 weeks): 30.3 mg/kg/day

CNC[C@H](O)c1cccc(O)c1
TD50 (mouse, strain B6C3F1, females, in feed, site: any site (literature study), lesion: several types, types named in the paper, dosed 103 weeks, study length 104 weeks): 911 mg/kg/day (inactive) | TD50 (mouse, strain B6C3F1, females, in feed, site: liver, lesion: hepatocellular adenoma + hepatocellular carcinoma + neoplastic nodule, dosed 103 weeks, study length 104 weeks): 7850 mg/kg/day | TD50 (mouse, strain B6C3F1, females, in feed, site: lung, lesion: alveolar/bronchiolar adenoma + alveolar/bronchiolar carcinoma, dosed 103 weeks, study length 104 weeks): 1610 mg/kg/day | TD50 (mouse, strain B6C3F1, males, in feed, site: any site (literature study), lesion: several types, types named in the paper, dosed 103 weeks, study length 104 weeks): 6330 mg/kg/day | TD50 (mouse, strain B6C3F1, males, in feed, site: liver, lesion: hepatocellular adenoma + hepatocellular carcinoma + neoplastic nodule, dosed 103 weeks, study length 104 weeks): 4270 mg/kg/day | TD50 (mouse, strain B6C3F1, males, in feed, site: lung, lesion: alveolar/bronchiolar adenoma + alveolar/bronchiolar carcinoma, dosed 103 weeks, study length 104 weeks): 2130 mg/kg/day | TD50 (mouse, strain B6C3F1, males, in feed, site: multiple organs + spleen, lesion: malignant lymphoma, mixed type, dosed 103 weeks, study length 104 weeks): 1720 mg/kg/day | TD50 (mouse, strain B6C3F1, males, in feed, site: subcutaneous tissue, lesion: fibrosarcoma, dosed 103 weeks, study length 104 weeks): 1640 mg/kg/day (inactive) | TD50 (rat, strain Fischer 344, females, in feed, site: any site (literature study), lesion: several types, types named in the paper, dosed 103 weeks, study length 104 weeks): 272 mg/kg/day (inactive) | carcinogen call (rat, strain Fischer 344, males, in feed, site: any site (literature study), lesion: several types, types named in the paper, dosed 103 weeks, study length 104 weeks): negative (inactive)

O=[N+]([O-])c1cc([N+](=O)[O-])c(Cl)c(Cl)c1Cl
TD50 (mouse, strain B6AKF1, females, oral dosing, site: any site (literature study), lesion: several types, types named in the paper, dosed 76 weeks, study length 76 weeks): 52.6 mg/kg/day | TD50 (mouse, strain B6AKF1, females, oral dosing, site: lung, lesion: adenoma, dosed 76 weeks, study length 76 weeks): 108 mg/kg/day | TD50 (mouse, strain B6AKF1, males, oral dosing, site: lung, lesion: adenoma, dosed 76 weeks, study length 76 weeks): 49 mg/kg/day | TD50 (mouse, strain B6C3F1, males, oral dosing, site: any site (literature study), lesion: several types, types named in the paper, dosed 76 weeks, study length 76 weeks): 19.8 mg/kg/day

CN(C)c1ccc(C(=N)c2ccc(N(C)C)cc2)cc1
TD50 (mouse, strain CBA, females, in feed, site: liver, lesion: hepatoma, dosed 52 weeks, study length 99 weeks): 67.7 mg/kg/day | TD50 (mouse, strain CBA, males, in feed, site: liver, lesion: hepatoma, dosed 52 weeks, study length 79 weeks): 77.5 mg/kg/day | TD50 (mouse, strain albino, females, in feed, site: liver, lesion: hepatoma, dosed 52 weeks, study length 79 weeks): 94.3 mg/kg/day | TD50 (mouse, strain albino, males, in feed, site: liver, lesion: hepatoma, dosed 52 weeks, study length 84 weeks): 39.2 mg/kg/day | TD50 (rat, strain Wilmslow Wistar, males, in feed, site: liver, lesion: hepatoma, dosed 87 weeks, study length 125 weeks): 11 mg/kg/day

O=C(Nc1nc(-c2ccc([N+](=O)[O-])o2)cs1)C(F)(F)F
TD50 [1]: 8.01 mg/kg/day | TD50 [2]: 9.98 mg/kg/day | TD50 (mouse, strain Swiss, females, in feed, site: forestomach, lesion: squamous-cell carcinoma, dosed 46 weeks, study length 55 weeks): 38.6 mg/kg/day | TD50 [3]: 43.5 mg/kg/day | TD50 (rat, strain Sprague-Dawley, females, in feed, site: any site (literature study), lesion: several types, types named in the paper, dosed 46 weeks, study length 66 weeks): 5.58 mg/kg/day | TD50 (rat, strain Sprague-Dawley, females, in feed, site: mammary gland, lesion: adenocarcinoma, dosed 46 weeks, study length 66 weeks): 7.27 mg/kg/day | TD50 (rat, strain Sprague-Dawley, females, in feed, site: mammary gland, lesion: several types, types named in the paper, dosed 46 weeks, study length 66 weeks): 6.79 mg/kg/day

CCOc1ccccc1C(N)=O
TD50 (mouse, strain B6C3F1, females, in feed, site: liver, lesion: several types, types named in the paper, dosed 96 weeks, study length 100 weeks): 3310 mg/kg/day | TD50 (mouse, strain B6C3F1, males, in feed, site: liver, lesion: several types, types named in the paper, dosed 96 weeks, study length 100 weeks): 513 mg/kg/day

[O]=[Nb](=[O])[OH]
carcinogen call (mouse, strain Charles River CD1, both sexes, in drinking water, site: any site (literature study), lesion: malignant tumor, dosed 135 weeks, study length 135 weeks): negative (inactive) | carcinogen call (mouse, strain Charles River CD1, both sexes, in drinking water, site: any site (literature study), lesion: one or several types, types not named, dosed 135 weeks, study length 135 weeks): negative (inactive) | carcinogen call (mouse, strain Charles River CD1, both sexes, in drinking water, site: liver, lesion: one or several types, types not named, dosed 135 weeks, study length 135 weeks): negative (inactive) | carcinogen call (mouse, strain Charles River CD1, both sexes, in drinking water, site: lung, lesion: one or several types, types not named, dosed 135 weeks, study length 135 weeks): negative (inactive)

Cc1c(O)cc2c(c1C)OC(C)(CCCC(C)CCCC(C)CCCC(C)C)CC2 (configuration not stated)
TD50 (mouse, strain B6C3F1, males, in feed, site: liver, lesion: hepatocellular carcinoma, dosed 96 weeks, study length 96 weeks): 5220 mg/kg/day | TD50 (mouse, strain B6C3F1, males, in feed, site: liver, lesion: several types, types named in the paper, dosed 96 weeks, study length 96 weeks): 3610 mg/kg/day
